According to PMC8228597, “Asperflaloids A and B from Aspergillus flavipes DZ-3, an Endophytic Fungus of Eucommia ulmoides Oliver” (Molecules, 2021):

Experiments:
[1] = DPPH radical scavenging test (antioxidant activity); conditions: for IC50: − means no activity
Method: The DPPH scavenging was assayed according to the reported method. The DPPH radical scavenging test was performed in 96-well microplates. Samples (compounds 1–12) were added to 180 μL (150 μmol/L) DPPH solution in EtOH at 20 μL solutions of different concentrations between 10 and 500 μM. After 30 min of light avoidance, absorbance at 517 nm using a microplate reader (Tecan Trading AG, Männedorf, Switzerland) was measured and the percentage of activity was calculated. All assays were performed in three replicates, and vitamin C was used as a positive control.

[2] = target: α-glucosidase (Saccharomyces cerevisiae, UniProt P53341); assay: α-glucosidase inhibitory assay; format: biochemical; conditions: − means no activity
Sequence of α-glucosidase (P53341 whole entry): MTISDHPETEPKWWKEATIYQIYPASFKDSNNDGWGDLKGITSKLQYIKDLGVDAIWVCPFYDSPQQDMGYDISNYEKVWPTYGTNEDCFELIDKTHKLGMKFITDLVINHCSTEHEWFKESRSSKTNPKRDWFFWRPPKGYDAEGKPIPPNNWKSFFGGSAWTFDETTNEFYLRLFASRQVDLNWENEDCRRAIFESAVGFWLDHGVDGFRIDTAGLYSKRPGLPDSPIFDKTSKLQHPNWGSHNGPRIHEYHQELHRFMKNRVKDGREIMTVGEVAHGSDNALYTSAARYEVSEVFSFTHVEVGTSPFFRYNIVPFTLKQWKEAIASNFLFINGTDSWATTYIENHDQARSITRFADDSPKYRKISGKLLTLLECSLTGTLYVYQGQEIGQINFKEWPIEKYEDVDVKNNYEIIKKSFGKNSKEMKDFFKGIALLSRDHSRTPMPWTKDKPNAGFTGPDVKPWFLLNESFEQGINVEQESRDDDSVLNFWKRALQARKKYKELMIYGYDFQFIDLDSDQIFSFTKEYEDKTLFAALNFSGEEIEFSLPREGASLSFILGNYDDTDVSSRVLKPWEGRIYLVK
Method: The α-glucosidase inhibitory effect was assessed as described in our recently published paper.

Molecule | Antioxidant % Inhibition (500 μM) [1] [%] | IC50 [1] [µM] | IC50 [2] [µM]
O=C(O)[C@H](Cc1ccc(O)cc1)n1cnc2ccccc2c1=O [Compound 1, Asperflaloid A] | <50 | > 500 | –
CC(=O)Nc1ccccc1C(=O)OC[C@@H](O)CO [Compound 2, Asperflaloid B] | <50 | > 500 | –
O=c1[nH]c(Cc2ccc(O)cc2)nc2ccccc12 [Compound 3, 2-(4-hydroxybenzyl)quinazolin-4(3H)-one] | <50 | > 500 | –
O=C(O)c1ccccc1-n1ncnc1Cc1ccc(O)cc1 [Compound 4, penipanoid A] | <50 | > 500 | –
C=CC(C)(C)[C@]12C=C(OC)C(=O)N3/C(=C/c4c[nH]cn4)C(=O)N[C@@]31N(OC)c1ccccc12 [Compound 5, oxaline] | <50 | > 500 | –
C/C(=C/C(=O)NCCCC(=O)O)CCO [Compound 6, fuscoatramide] | <50 | > 500 | –
O=C(O)Cc1ccc(O)c(O)c1 [Compound 7, 3,4-dihydroxybenzeneacetic acid] | 96.6 | 14.4 | –
COC(=O)Cc1ccc(O)c(O)c1 [Compound 8, 3,4-dihydroxyphenylacetic acid methyl ester] | 92 | 27.1 | –
NC(=O)Cc1ccc(O)cc1 [Compound 10, 4-hydroxybenzeneacetamide] | 64.9 | 339 | –
COC(=O)Cc1ccc(O)cc1 [Compound 11, 4-hydroxy phenylacetic acid methyl ester] | <50 | > 500 | –
N#CCc1ccc(O)cc1 [Compound 12, 4-hydroxyphenylacetonitrile] | <50 | > 500 | –
O=C1O[C@H]([C@@H](O)CO)C(O)=C1O [Vitamin C, vitamin C, reference compound] | 96.4 | 26.7 | –
phenylacetic acid [Compound 9] | <50 | > 500 | > 1000
